Source: the supplement of paper PMC8988213

What was measured:
[1] = test system: ID188 patient-derived PDAC 2D line (pre-FOLFIRINOX); experiment: normalised area under dose-response curve (viability relative to DMSO, 7 doses up to 10 µM) (fraction (AUC)); higher = less sensitive (more viability retained); settings: 72 h; top dose: 10 µM
In short: (§1)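 Patient-derived 2D PDAC cells grown out from organoids were seeded robotically at 1,500–3,000 cells/well in 96-well plates and incubated overnight at 37°C, 5% CO2. SelleckChem library compounds were added at seven concentrations (3-fold dilution series, highest 10 µM) for 72 h. CellTiter-Glo luminescence was read after 10 min. Viability was normalised to the DMSO control, and area under the dose-response curve was derived with the GRmetrics R package.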

[2] = test system: ID211 patient-derived PDAC 2D line (post-FOLFIRINOX); experiment: as above; settings: 72 h; top dose: 10 µM
In short: as §1

Structure (SMILES)	normalised area under dose-response curve [1]	normalised area under dose-response curve [2]
O=C(O)CC[C@H]1CC[C@@](c2cc(F)ccc2F)(S(=O)(=O)c2ccc(Cl)cc2)CC1 [MK-0752]	0.888	0.83
CC(C)c1ccc2c(c1)c(SC(C)(C)C)c(CC(C)(C)C(=O)O)n2Cc1ccc(Cl)cc1 [MK-886 (L-663,536)]	0.989	0.843
NC1(c2ccc(-c3nc4ccn5c(=O)[nH]nc5c4cc3-c3ccccc3)cc2)CCC1 [MK-2206 2HCl]	0.844	0.672
CN(C(=O)CNC(=O)/C=C/c1cccc(Cl)c1)C1CCS(=O)(=O)CC1 [ML264]	0.796	0.894
Cc1cnc(-c2ccccc2C(C)C)nc1NCc1ccc(-n2ccnn2)cc1 [ML323]	0.932	0.871
CN(C)CCCNC(=O)c1ccc(-c2cc(O)c3ncccc3c2)cc1 [ML324]	0.953	0.774
O=C(CCNC(=O)c1ccc(OC(F)(F)F)cc1)N[C@@H]1CCCc2ccccc21 [ML390]	0.983	0.788
C[C@@H](NC(=O)c1ncnc(N)c1Cl)c1ncc(C(=O)Nc2cc(C(F)(F)F)c(Cl)cn2)s1 [MLN2480]	0.905	0.818
CC(C)Oc1ccc(-c2c[nH]cc2CN(C)CCN)cc1 [MS023]	0.842	0.634
Cc1cc(/N=N/c2ccc(S(=O)(=O)Nc3ccccn3)cc2)c(N)cc1O [MS436]	0.977	0.957
Cc1ccc(NC(=O)c2ccc(CN3CCN(C)CC3)cc2)cc1Nc1nc(-c2cccnc2)cs1 [Masitinib (AB1010)]	0.959	0.83
COc1cc(-n2c(=S)[nH]c3ccccc3c2=O)c(Cl)cc1Cl [Mdivi-1]	0.885	0.957
N[C@@H](Cc1ccc(N(CCCl)CCCl)cc1)C(=O)O [Melphalan]	0.87	0.853
CCS(=O)(=O)Nc1ccc(Oc2ccc(F)cc2F)c(-c2cn(C)c(=O)c3[nH]ccc23)c1 [Mivebresib(ABBV-075)]	0.666	0.538
CCCN(CCC)C(=O)C1=Cc2ccc(-c3ccc(C(=O)N4CCCC4)cc3)cc2N=C(N)C1 [Motolimod (VTX-2337)]	0.969	0.822
FC(F)(F)c1ccc(/C=C/c2nc(COc3ccc(CCCCn4ccnn4)cc3)co2)cc1 [Mubritinib (TAK 165)]	0.735	0.784
CC(C)CCn1c(CN2CCN(C(=O)C3CC3)CC2)nc2c1c(=O)n(C)c(=O)n2C [NCT-501]	0.965	0.822
Cc1cc(C)nc(NC(=S)N2CCN(Cc3ccc(C(F)(F)F)cc3)CC2)c1 [NCT-503]	0.954	0.909
Cc1cc(OCc2nnc(SC3CCCC3)n2-c2cccnc2)ccc1-c1ccc(S(C)(=O)=O)cc1 [NMS-873]	0.8	0.406
Oc1cc(CNC(=S)/C=C/c2cc(O)c(O)c(Br)c2)cc(O)c1O [NT157]	0.943	0.886
O=c1cc(N2CCOCC2)oc2c1ccc1ccccc12 [NU7026]	0.998	0.846
Cc1ccc(C(=O)Nc2cccc(C(F)(F)F)c2)cc1Nc1nc(-c2cccnc2)nc2c1cnn2C [NVP-BHG712]	0.869	0.831
COc1cc2c(cc1OC(C)C)[C@H](c1ccc(Cl)cc1)N(c1ccc(N(C)C[C@H]3CC[C@H](N4CCN(C)C(=O)C4)CC3)cc1)C(=O)C2 [NVP-CGM097]	0.988	0.72
